This note sets out measurements from ChEMBL document CHEMBL4804285, “Small molecule inhibitors of cdk12/cdk13” (2019).

For one data set, the target named is T1, Cytochrome P450 1A2 (Homo sapiens, UniProt P05177).
T1 sequence (P05177 whole entry): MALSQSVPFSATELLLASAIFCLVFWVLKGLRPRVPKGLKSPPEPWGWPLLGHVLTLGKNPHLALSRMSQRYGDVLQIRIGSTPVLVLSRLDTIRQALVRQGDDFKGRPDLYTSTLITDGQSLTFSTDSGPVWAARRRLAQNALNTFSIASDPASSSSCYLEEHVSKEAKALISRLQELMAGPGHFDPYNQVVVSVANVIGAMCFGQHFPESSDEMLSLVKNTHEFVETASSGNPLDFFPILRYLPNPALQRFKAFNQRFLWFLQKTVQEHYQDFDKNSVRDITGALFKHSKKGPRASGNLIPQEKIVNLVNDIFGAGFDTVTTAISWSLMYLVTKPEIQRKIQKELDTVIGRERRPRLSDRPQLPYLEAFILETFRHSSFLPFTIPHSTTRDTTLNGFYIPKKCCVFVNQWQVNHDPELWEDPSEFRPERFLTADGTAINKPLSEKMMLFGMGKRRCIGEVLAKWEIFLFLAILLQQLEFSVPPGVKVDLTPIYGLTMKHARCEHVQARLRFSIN
Kind of data set: Inhibition of CYP1A2 (unknown origin). The data set is classed as ADME.

The target in a further data set is Cytochrome P450 2C9 (Homo sapiens, UniProt P11712). Description: Inhibition of CYP2C9 (unknown origin). The class given is ADME.
A further data set deals with Cytochrome P450 2D6 (Homo sapiens, UniProt P10635). Kind of data set: Inhibition of CYP2D6 (unknown origin). The class given is ADME.
Sequence of Cytochrome P450 2D6 (P10635 whole entry): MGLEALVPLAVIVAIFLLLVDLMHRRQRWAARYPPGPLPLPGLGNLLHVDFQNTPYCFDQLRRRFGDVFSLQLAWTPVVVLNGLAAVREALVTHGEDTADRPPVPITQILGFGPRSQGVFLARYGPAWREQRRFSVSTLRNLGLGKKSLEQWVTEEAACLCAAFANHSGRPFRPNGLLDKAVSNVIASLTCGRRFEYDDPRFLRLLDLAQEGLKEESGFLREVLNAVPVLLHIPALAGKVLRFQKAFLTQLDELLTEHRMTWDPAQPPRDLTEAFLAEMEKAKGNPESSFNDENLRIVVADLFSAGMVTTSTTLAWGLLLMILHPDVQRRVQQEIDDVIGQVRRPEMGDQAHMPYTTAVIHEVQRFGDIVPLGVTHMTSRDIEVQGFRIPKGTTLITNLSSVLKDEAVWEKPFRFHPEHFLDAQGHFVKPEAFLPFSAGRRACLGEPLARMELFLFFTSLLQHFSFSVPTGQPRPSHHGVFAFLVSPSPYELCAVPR
The next data set deals with Cytochrome P450 3A4 (Homo sapiens, UniProt P08684). Description: Inhibition of CYP3A4 (unknown origin). The class given is ADME.
Sequence of Cytochrome P450 3A4 (P08684 whole entry): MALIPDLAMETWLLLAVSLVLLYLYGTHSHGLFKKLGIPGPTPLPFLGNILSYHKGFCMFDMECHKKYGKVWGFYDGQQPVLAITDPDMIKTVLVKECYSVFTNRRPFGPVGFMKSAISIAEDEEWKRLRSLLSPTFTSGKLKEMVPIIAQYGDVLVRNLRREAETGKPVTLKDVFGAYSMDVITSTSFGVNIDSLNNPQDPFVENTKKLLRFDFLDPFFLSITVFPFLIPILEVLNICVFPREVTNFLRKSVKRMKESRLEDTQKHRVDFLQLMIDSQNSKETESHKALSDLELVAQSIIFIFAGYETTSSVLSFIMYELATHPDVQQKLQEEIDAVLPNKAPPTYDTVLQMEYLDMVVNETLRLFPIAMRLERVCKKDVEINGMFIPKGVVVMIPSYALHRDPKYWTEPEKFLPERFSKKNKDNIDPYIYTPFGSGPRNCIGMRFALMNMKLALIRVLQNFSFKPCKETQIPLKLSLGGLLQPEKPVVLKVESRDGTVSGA
Data set [1] concerns the target Cyclin-dependent kinase 7 (Homo sapiens) (UniProt P50613). Kind of data set: Inhibition of CDK7 (unknown origin) at 10 uM relative to control.
Data set [2] addresses T2, Cyclin-dependent kinase 13 (Homo sapiens, UniProt Q14004). Kind of data set: Inhibition of CDK13 (unknown origin) at 10 uM relative to control.
Target sequence in this assay (Q14004 whole entry, looked up): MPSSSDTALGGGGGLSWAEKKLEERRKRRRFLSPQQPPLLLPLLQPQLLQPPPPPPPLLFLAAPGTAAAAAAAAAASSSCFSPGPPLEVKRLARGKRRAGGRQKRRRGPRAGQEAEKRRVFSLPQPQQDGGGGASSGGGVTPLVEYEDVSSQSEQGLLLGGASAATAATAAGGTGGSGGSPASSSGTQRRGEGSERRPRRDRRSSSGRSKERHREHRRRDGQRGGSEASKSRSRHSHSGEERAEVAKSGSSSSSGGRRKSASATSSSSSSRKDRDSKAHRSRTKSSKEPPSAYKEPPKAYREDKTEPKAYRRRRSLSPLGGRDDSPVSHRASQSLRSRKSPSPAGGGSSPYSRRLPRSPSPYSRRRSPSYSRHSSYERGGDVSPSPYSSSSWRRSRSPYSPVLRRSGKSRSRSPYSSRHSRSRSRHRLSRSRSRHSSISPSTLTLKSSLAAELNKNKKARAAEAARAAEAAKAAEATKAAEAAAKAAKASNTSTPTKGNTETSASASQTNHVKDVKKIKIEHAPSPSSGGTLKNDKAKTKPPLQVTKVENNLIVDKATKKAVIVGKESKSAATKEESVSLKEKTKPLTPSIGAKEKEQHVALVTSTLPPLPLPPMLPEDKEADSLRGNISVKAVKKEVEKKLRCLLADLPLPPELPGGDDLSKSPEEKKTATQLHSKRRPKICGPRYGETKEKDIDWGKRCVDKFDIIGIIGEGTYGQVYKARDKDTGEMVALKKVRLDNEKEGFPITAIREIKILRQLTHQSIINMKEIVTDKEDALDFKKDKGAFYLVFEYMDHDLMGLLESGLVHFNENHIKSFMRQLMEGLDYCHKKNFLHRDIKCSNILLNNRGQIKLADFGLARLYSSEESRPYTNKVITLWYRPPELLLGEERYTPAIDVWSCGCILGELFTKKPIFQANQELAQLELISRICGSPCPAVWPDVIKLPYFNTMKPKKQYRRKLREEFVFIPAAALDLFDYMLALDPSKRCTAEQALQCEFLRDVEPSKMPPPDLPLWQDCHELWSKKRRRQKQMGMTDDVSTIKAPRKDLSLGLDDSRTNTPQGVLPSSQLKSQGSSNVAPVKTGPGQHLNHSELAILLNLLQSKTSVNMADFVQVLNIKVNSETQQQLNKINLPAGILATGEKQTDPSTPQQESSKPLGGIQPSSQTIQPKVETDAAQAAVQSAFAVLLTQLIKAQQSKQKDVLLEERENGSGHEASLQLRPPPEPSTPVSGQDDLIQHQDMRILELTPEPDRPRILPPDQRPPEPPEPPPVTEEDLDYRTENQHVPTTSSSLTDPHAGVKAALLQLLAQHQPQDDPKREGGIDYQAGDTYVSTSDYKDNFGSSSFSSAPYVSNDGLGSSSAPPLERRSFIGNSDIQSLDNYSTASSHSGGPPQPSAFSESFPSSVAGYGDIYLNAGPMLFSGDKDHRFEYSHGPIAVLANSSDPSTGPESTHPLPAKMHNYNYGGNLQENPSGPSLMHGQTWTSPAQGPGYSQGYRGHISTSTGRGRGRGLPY
The target in data set [3] is Cyclin-dependent kinase 19 (Homo sapiens) (UniProt Q9BWU1). Kind of data set: Inhibition of CDK11 (unknown origin) at 10 uM relative to control.
Data set [4] addresses Cyclin-dependent kinase 2 (Homo sapiens) (UniProt P24941). Description: Inhibition of CDK2 (unknown origin) at 10 uM relative to control.
Data set [5] addresses Cyclin-dependent kinase 3 (Homo sapiens) (UniProt Q00526). Description: Inhibition of CDK3 (unknown origin) at 10 uM relative to control.
Data set [6] deals with Cyclin-dependent kinase 4/cyclin D1 (Homo sapiens) (UniProt P11802+P24385). Description: Inhibition of CDK4/Cyclin D1 (unknown origin) at 10 uM relative to control. The class given is protein-complex assay.
For data set [7], the target named is CDK4/Cyclin D3 (Homo sapiens) (UniProt P11802+P30281). Kind of data set: Inhibition of CDK4/Cyclin D3 (unknown origin) at 10 uM relative to control. The data set is classed as protein-complex assay.
Data set [8] has as its target Cyclin-dependent kinase 8 (Homo sapiens) (UniProt P49336). Description: Inhibition of CDK8 (unknown origin) at 10 uM relative to control.
Data set [9] addresses Cyclin-dependent kinase 9 (Homo sapiens) (UniProt P50750). Kind of data set: Inhibition of CDK9 (unknown origin) at 10 uM relative to control.
Data set [10] has as its target Cyclin-dependent kinase-like 1 (Homo sapiens) (UniProt Q00532). Kind of data set: Inhibition of CDKL1 (unknown origin) at 10 uM relative to control.
The target in data set [11] is T3, Cyclin-dependent kinase-like 2 (Homo sapiens) (UniProt Q92772).
T3 sequence (whole entry): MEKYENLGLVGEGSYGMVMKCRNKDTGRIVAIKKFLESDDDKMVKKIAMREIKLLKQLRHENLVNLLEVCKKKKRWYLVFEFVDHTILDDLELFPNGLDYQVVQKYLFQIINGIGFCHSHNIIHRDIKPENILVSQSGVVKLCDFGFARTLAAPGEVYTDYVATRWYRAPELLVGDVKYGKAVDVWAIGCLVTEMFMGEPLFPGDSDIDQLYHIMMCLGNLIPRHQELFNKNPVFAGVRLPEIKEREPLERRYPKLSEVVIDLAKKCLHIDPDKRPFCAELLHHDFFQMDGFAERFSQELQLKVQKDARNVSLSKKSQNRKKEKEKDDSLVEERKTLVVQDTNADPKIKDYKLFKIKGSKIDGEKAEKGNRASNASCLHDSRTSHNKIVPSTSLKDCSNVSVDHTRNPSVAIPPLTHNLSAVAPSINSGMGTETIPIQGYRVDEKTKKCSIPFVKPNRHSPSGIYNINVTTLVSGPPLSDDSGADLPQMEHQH
Description: Inhibition of CDKL2 (unknown origin) at 10 uM relative to control.

For data set [12], the target named is Cyclin-dependent kinase-like 3 (Homo sapiens) (UniProt Q8IVW4). Description: Inhibition of CDKL3 (unknown origin) at 10 uM relative to control.
The target of data set [13] is T4, Cyclin-dependent kinase-like 5 (Homo sapiens) (UniProt O76039).
T4 sequence (whole entry): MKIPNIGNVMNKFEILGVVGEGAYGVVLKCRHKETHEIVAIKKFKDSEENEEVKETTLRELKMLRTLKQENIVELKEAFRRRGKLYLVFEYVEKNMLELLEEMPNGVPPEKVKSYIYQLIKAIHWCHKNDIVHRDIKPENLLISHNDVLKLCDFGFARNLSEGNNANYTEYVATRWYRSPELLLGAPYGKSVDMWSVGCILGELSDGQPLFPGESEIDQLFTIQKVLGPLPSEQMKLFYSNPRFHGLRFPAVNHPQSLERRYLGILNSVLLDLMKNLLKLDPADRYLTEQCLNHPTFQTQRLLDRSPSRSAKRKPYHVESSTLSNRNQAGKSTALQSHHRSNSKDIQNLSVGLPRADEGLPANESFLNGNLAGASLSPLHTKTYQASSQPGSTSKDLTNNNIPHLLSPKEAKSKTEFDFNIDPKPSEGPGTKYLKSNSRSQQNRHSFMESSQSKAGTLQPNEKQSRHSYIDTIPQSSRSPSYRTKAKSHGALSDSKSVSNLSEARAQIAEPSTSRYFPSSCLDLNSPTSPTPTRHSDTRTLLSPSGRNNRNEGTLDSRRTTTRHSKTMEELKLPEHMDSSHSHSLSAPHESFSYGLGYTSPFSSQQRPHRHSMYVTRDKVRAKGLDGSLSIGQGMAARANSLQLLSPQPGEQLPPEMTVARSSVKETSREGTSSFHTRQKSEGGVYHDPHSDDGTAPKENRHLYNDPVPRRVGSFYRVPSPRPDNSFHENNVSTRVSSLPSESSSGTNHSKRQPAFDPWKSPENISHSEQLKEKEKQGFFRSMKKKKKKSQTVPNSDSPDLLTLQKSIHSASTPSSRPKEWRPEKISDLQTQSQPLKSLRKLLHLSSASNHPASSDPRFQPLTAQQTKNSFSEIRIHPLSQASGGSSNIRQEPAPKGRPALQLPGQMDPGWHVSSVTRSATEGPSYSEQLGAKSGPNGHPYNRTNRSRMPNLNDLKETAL
Description: Inhibition of CDKL5 (unknown origin) at 10 uM relative to control.

The target in data set [14] is Casein kinase I isoform epsilon (Homo sapiens, UniProt P49674). Kind of data set: Inhibition of casein kinase 1epsilon (unknown origin).
Data set [15] addresses Cyclin-dependent kinase 12 (Homo sapiens, UniProt Q9NYV4). Description: Binding affinity towards CDK12 (unknown origin) by Discover X assay.
The target in data set [16] is T2, Cyclin-dependent kinase 13. Description: Binding affinity towards CDK13 (unknown origin) by Discover X assay.
Target sequence in this assay (Q14004 whole entry): as the sequence (Q14004 whole entry, looked up) above
The target of data set [17] is Cyclin-dependent kinase 4 (Homo sapiens) (UniProt P11802). Kind of data set: Inhibition of CDK4 (unknown origin) at 10 uM relative to control.
The target of data set [18] is Casein kinase I isoform delta (Homo sapiens, UniProt P48730). Description: Inhibition of casein kinase 1delta (unknown origin).
A short description of data set [19]: Cmax in mouse at 20 mg/kg, ip. The class given is ADME, organism-based. The arrangement: route intraperitoneal, dose 20 mg/kg. The settings on record: in vivo.
The nature of data set [20]: AUC (last) in mouse at 20 mg/kg, ip. The class given is ADME, organism-based. The arrangement: time 0 - last, route intraperitoneal, dose 20 mg/kg. The settings on record: in vivo.
Data set [21] addresses Cyclin-dependent kinase 5 (Homo sapiens) (UniProt Q00535). Kind of data set: Inhibition of CDK5 (unknown origin) at 10 uM relative to control.

Several values for one entry are separate records, joined by “and”; a condition that tells them apart may be missing. Equal values may be shown once.

Sequence of Cyclin-dependent kinase 12 (Q9NYV4 whole entry): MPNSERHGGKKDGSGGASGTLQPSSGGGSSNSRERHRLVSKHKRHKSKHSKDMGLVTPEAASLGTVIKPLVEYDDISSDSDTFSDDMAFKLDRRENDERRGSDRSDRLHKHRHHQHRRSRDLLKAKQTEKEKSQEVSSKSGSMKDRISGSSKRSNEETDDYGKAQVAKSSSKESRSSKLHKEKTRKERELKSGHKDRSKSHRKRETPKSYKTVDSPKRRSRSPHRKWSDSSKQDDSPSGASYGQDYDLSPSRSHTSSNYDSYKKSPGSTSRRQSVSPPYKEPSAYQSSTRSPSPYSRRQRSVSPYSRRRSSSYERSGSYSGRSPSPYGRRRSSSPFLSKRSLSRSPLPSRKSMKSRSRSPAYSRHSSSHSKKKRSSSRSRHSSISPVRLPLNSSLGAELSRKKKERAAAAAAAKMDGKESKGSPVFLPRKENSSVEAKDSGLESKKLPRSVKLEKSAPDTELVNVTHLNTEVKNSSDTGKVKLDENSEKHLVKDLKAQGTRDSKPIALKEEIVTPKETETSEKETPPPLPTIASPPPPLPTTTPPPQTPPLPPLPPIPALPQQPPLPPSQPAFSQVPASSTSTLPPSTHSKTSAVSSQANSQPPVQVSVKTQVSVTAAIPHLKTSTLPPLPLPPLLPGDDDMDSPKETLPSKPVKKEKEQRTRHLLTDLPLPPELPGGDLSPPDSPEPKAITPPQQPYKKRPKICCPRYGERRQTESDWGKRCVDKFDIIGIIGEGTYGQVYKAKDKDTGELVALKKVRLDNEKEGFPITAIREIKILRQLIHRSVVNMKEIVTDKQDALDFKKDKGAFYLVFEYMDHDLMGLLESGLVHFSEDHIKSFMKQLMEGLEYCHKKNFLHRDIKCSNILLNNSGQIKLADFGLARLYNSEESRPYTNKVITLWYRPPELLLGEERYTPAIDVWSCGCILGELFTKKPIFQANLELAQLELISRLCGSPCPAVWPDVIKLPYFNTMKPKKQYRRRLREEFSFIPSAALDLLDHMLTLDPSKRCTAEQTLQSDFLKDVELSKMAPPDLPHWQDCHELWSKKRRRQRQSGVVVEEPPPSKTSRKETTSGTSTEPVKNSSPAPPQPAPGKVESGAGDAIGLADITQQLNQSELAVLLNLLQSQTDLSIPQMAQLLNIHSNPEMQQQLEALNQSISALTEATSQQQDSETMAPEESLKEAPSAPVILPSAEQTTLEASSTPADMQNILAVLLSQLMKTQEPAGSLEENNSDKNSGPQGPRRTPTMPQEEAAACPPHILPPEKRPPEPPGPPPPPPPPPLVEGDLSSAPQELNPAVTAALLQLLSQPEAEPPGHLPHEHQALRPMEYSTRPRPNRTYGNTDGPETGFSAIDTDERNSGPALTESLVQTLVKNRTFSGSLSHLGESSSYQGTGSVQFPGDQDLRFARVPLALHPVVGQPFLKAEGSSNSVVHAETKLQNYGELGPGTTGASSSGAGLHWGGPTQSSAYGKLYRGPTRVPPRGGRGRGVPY
Sequence of Cyclin-dependent kinase 3 (Homo sapiens) (Q00526 whole entry, looked up): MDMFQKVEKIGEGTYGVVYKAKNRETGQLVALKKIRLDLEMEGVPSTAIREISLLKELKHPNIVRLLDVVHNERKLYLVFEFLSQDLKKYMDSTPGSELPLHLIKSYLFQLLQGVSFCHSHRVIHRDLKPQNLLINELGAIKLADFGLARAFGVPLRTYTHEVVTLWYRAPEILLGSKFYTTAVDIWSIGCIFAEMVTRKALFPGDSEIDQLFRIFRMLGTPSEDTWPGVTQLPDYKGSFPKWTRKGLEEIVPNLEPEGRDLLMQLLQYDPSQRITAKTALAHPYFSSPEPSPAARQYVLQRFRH
Sequence of Cyclin-dependent kinase 8 (Homo sapiens) (P49336 whole entry): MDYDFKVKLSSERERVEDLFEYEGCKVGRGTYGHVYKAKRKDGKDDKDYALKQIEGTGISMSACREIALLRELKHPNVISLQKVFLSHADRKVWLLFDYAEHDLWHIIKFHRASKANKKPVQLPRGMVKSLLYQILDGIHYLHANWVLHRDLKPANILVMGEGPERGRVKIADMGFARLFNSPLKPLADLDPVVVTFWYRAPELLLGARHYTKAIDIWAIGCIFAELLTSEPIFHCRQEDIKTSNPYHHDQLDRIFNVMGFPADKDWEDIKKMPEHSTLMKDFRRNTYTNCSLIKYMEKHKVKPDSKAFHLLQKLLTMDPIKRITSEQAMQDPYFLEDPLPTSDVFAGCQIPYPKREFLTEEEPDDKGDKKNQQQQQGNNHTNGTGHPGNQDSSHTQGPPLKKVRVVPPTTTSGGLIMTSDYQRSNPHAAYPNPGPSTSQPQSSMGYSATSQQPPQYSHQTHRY

`Cn1cc(-n2cnc3c(NCc4nc5c(F)c(F)ccc5[nH]4)nc(N4CCOCC4)nc32)cn1`: the “inhibition (INH)” value is 10% on Cytochrome P450 1A2, 23% on Cytochrome P450 2C9, -3% against Cytochrome P450 2D6 and 56% on Cytochrome P450 3A4. Moreover, the inhibition was found to be 69% in data set [1]; 100% in data set [2]; 0% in [3]; 6% in data set [4]; 3% in [5]; 99% in [6]. For the same compound, the inhibition in data set [7] amounted to 99%; in data set [8], 0%; in [9], 43%; in [10], 16%; in data set [11], 0%; in data set [12], 0%. The same compound gave an inhibition in data set [13] of 0%.

With `COc1cc2nc(CNc3nc(N4CCOCC4)nc4c3ncn4-c3cnn(C)c3)[nH]c2cc1Cl`, the IC50 in data set [14] is 2620 nM. In addition, the dissociation constant (Kd) came to 38 nM in data set [15] and 2 nM in [16]. In addition, the inhibition in data set [17] turned out to be 99%; in [1], 98%; in data set [2], 12%.

Consider `Cn1cc(-n2cnc3c(NCc4nc5cc(Cl)c(Cl)cc5[nH]4)nc(N4CCOC[C@@H]4CO)nc32)cn1`, for which the results for the IC50 in data set [18] and in data set [14] were 333 nM and 145 nM, respectively. The “inhibition (INH)” value against Cytochrome P450 1A2 was determined as 42%; on Cytochrome P450 2C9, 69%; on Cytochrome P450 2D6, 42%; on Cytochrome P450 3A4, 77%.

As to `Cc1cc(-n2cnc3c(NCc4nc5c(F)c(F)ccc5[nH]4)nc(N4CCOCC4)nc32)no1`, the “inhibition (INH)” value against Cytochrome P450 1A2 was 5%; on Cytochrome P450 2C9, 23%; on Cytochrome P450 2D6, 2%; at Cytochrome P450 3A4, 55%. The inhibition was determined as 69% in [1]; 100% in [2]; 23% in data set [3]; 3% in [4]; 8% in [5]; 99% in [6]. Moreover, the inhibition in data set [7] was found to be 99%; in data set [8], 40%; in data set [9], 64%; in data set [10], 16%; in [11], 2%; in data set [12], 0%. In data set [13], this compound registered an inhibition of 1%.

Consider `Cn1cc(-n2cnc3c(NCc4nc5cc(F)c(F)cc5[nH]4)nc(N4CCOCC4)nc32)cn1`, for which the “inhibition (INH)” value against Cytochrome P450 1A2 is 5%; at Cytochrome P450 2C9 it was 23%; on Cytochrome P450 2D6 it was 2%; against Cytochrome P450 3A4, 55%.

For `Fc1ccc2[nH]c(CNc3nc(N4CCOCC4)nc4c3ncn4-c3cscn3)nc2c1F`, the IC50 worked out at 870 nM in [18] and 1280 nM in data set [14]. Besides, the Kd worked out at 18 nM in [15] and 6 nM in [16]. Further, the “inhibition (INH)” value against Cytochrome P450 1A2 worked out at 97%; on Cytochrome P450 2D6, 57%; at Cytochrome P450 3A4 it was 89%.

Turning to `Cn1cc(-n2cnc3c(NCc4nc5cc(Cl)c(Cl)cc5[nH]4)nc(N4CCOC[C@H]4CO)nc32)cn1`, the figures for the concentration for half-maximal inhibition (IC50) in data set [18] and in data set [14] were 6070 nM and 5360 nM, respectively. For the same compound, the “inhibition (INH)” value on Cytochrome P450 1A2 worked out at 39%; against Cytochrome P450 2C9, 54%; at Cytochrome P450 2D6, 29%; against Cytochrome P450 3A4, 54%. Further, the Cmax in [19] was 1430 ng/mL and 2.7 µM. The compound also had an area under the curve AUC(0-t) in [20] of 10 µM·h.

`Fc1cccc(-n2cnc3c(NCc4nc5c(F)c(F)ccc5[nH]4)nc(N4CCOCC4)nc32)c1`: the inhibition in [1] is 72%; in [2] it was 100%; in data set [3], 0%; in data set [4] it was 1%; in data set [5], 6%; in data set [6] it was 97%. The inhibition was 95% in [7]; 18% in [21]; 22% in data set [8]; 69% in [9]; 8% in [10]; 0% in [11]. For the same compound, the inhibition is 5% in data set [12] and 0% in data set [13].

In the case of `FC(F)n1cc(-n2cnc3c(NCc4nc5cc(Cl)c(Cl)cc5[nH]4)nc(N4CCOCC4)nc32)cn1`, the concentration for half-maximal inhibition (IC50) in [18] was determined as 1260 nM; in data set [14], 709 nM. The results for the equilibrium dissociation constant (Kd) in data set [15] and in [16] were 310 nM and 9 nM, respectively.
